# Results taken from article PMC5106528, “High-Throughput Toxicity and Phenotypic Screening of 3D Human Neural Progenitor Cell Cultures on a Microarray Chip Platform” (Stem Cell Reports, 2016).
# Read-outs that look alike come from different tables or passages of the source. Marks after values point to notes of the source that are not given here.
# Key:
# [1] = system: differentiating ReNcell VM NPCs; experiment: cells
# Experimental: (§1) On-chip cultures of undifferentiated and 10-day differentiated NPCs were stamped with WellChips filled with compound-containing solutions and incubated for 72 hr prior to viability assessment. Vehicle-control normalized viabilities were plotted against compound concentration to generate dose-response plots (Figures 5A and S4). […] The sigmoidal fits for undifferentiated and differentiating NPCs were compared to assess whether differential sensitivities (i.e., different IC50 values) existed for the screened compounds.
# (§2) Cell viability was determined in 3D on-chip cultures using a mammalian cell viability assay (LIVE/DEAD, Invitrogen). Prior to the assay, dead cell controls were prepared with 30 min incubation in a WellChip containing either […] 0.5% (w/v) saponin-DMEM/F12 medium in its microwells. […] After staining, PillarChips were rinsed twice with warm DPBS and incubated in DPBS containing 50 mM trehalose (Sigma) for 10 min before rapid drying with nitrogen and storage in the dark. Dried PillarChips were imaged with a Thermo Scientific Cellomics ArrayScan VTI high-content system.
# (§3) Undifferentiated and differentiated microchip cultures were prepared as described above. Chemicals were purchased from Sigma or the NIH Small Molecule Repository (Table S2). Concentrated stocks were prepared and diluted into ReNcell Maintenance Medium to prepare the highest screened concentration solution for each compound. Four-fold serial dilutions were made in ReNcell Maintenance Medium, with all solutions having a final concentration of 0.5% or 1% DMSO (v/v) and 20 μg/mL Matrigel. For undifferentiated cultures, the solutions also contained 20 ng/mL of EGF and FGF2. These solutions were printed into WellChips, covered with a gas-permeable membrane, and warmed at 37°C for at least 5 min before stamping with cells. Each WellChip contained six compounds each at six concentrations (n = 10 biological replicates for each concentration) and the appropriate medium containing 0.5% or 1% DMSO for vehicle and dead controls (n = 32 biological replicates per control). PillarChip cultures were incubated with compounds for 72 hr with daily medium exchange to freshly prepared WellChips containing compounds at the appropriate concentrations. […] On-chip toxicity screens were repeated three times for undifferentiated and differentiated cultures. […]
# [2] = system: undifferentiated ReNcell VM NPCs; experiment: cells
# Experimental: as §1, §2, §3
# [3] = system: undifferentiated ReNcell VM NPCs; experiment: On-chip proliferation assay (EdU incorporation), undifferentiated NPCs; assay type: cell-based, human; details: for IC50 / Proliferation Effects Undifferentiating log(IC50 ± SEM): undifferentiated, 72 hr exposure, EdU for the final 24 hr, sigmoidal fit; for Effect on proliferation of NPC cultures (in words): state not specified
# Text: (§4) Differential toxic effects could be explained, in part, as a consequence of the different proliferative states between the undifferentiated and differentiating NPCs. To this end, the thymidine analog, 5-ethynyl-2′-deoxyuridine (EdU), was used to detect actively proliferating cells on-chip following exposure to compounds or vehicle control to determine dose-response effects on proliferation (Figures 5B and S5), and sigmoidal curves were fit, when appropriate, to obtain IC50 values (Table 1). We found ∼60% of undifferentiated NPCs incorporated EdU over a 24-hr period as opposed to ∼3% of differentiating cultures.
# (§5) Undifferentiated and differentiating cultures were screened for toxicity as described previously, except that after the first 48 hr of exposure 10 μM EdU (Click-iT EdU, Invitrogen) was added to the compound-containing medium for the final 24 hr. After 72 hr, on-chip cultures were fixed and processed as described previously for on-chip immunofluorescence; however, instead of antibody staining the cultures were incubated with solution containing Alexa Fluor 488-azide for 30 min as specified in the product manual. Cultures were then rinsed with DPBS for 30 min, incubated in DPBS with Hoechst 33342 (5 μg/mL) for 30 min, and washed in DPBS for 30 min before proceeding with a trehalose wash and drying as described previously. Nuclei were selected using Cellomics software from blue channel images to create a mask, which was used for identification of fluorescently labeled EdU in the green channel for quantification of actively proliferating cells over the 24-hr EdU exposure.
# [4] = system: differentiating ReNcell VM NPCs; experiment: cells; assay type: cell-based, human; details: for IC50 / Proliferation Effects Differentiating log(IC50 ± SEM): differentiating, 72 hr exposure, EdU for the final 24 hr, sigmoidal fit
# Text: as §4, §5
# [5] = differentiating cultures, 72 hr
# [6] = undifferentiated cultures, 72 hr
# [7] = Homo sapiens, ReNcell VM, read-out: Viability Effects Differentiating IC50
# [8] = Homo sapiens, ReNcell VM, read-out: Viability Effects Differentiating log(IC50 ± SEM) (converted)
# [9] = Homo sapiens, ReNcell VM, 72 h, read-out: Viability Effects Undifferentiated IC50
# [10] = Homo sapiens, ReNcell VM, 72 h, read-out: Viability Effects Undifferentiated log(IC50 ± SEM) (converted)
# [11] = Homo sapiens, ReNcell VM, read-out: Proliferation Effects Undifferentiating IC50
# [12] = Homo sapiens, ReNcell VM, read-out: Proliferation Effects Undifferentiating log(IC50 ± SEM) (converted)
# [13] = Homo sapiens, ReNcell VM, read-out: Proliferation Effects Differentiating IC50
# [14] = Homo sapiens, ReNcell VM, read-out: Proliferation Effects Differentiating log(IC50 ± SEM) (converted)
# [15] = 10-day differentiated (−EGF/FGF2), 72 hr exposure, 1% Matrigel on-chip, sigmoidal fit
# [16] = read-out: Viability Effects Differentiating IC50, 10-day differentiated (−EGF/FGF2), 72 hr exposure, 1% Matrigel on-chip, sigmoidal fit
# [17] = read-out: Viability Effects Undifferentiated IC50, undifferentiated (+EGF/FGF2), 72 hr exposure, 1% Matrigel on-chip, sigmoidal fit
# [18] = undifferentiated (+EGF/FGF2), 72 hr exposure, 1% Matrigel on-chip, sigmoidal fit
smiles,measurement,setting,value
CCCC(CCC)C(=O)O [Valproic Acid],"Normalized viability at Cmax, Differentiating, Mean ± SEM","[1]; human, 72 h",1.09 ± 0.10
same,"Normalized viability at Cmax, Undifferentiated, Mean ± SEM","[2]; human, 72 h",0.99 ± 0.08
[Cl][Mn][Cl] [Manganese Chloride],Effect on cell viability (in words),[1]; [5],did not reduce cell viability
same,Effect on cell viability (in words),[2]; [6],did not reduce cell viability
C[C@@H]1C[C@H]2[C@@H]3CCC4=CC(=O)C=C[C@]4(C)[C@@]3(F)[C@@H](O)C[C@]2(C)[C@@]1(O)C(=O)CO [Dexamethasone],"Normalized viability at Cmax, Differentiating, Mean ± SEM","[1]; human, 72 h",1.08 ± 0.16
same,"Normalized viability at Cmax, Undifferentiated, Mean ± SEM","[2]; human, 72 h",1.35 ± 0.33
C[n+]1ccc(-c2cc[n+](C)cc2)cc1 [Paraquat],"Normalized viability at Cmax, Differentiating, Mean ± SEM",[1],0.05 ± 0.02
same,IC50,[1]; [7],41 µM
same,IC50,[1]; [8],40.7 µM
same,"Normalized viability at Cmax, Undifferentiated, Mean ± SEM",[2],-0.02 ± 0.03
same,IC50,[2]; [9],57 µM
same,IC50,[2]; [10],63.1 µM
same,IC50,[3]; [11],59 µM
same,IC50,[3]; [12],58.9 µM
same,IC50,[4]; [13],30 µM
same,IC50,[4]; [14],30.2 µM
"CN1CCN2c3ncccc3Cc3ccccc3C2C1 (stereo not shown) [Mitrazepine, Mirtazapine]","Normalized viability at Cmax, Undifferentiated, Mean ± SEM","[2]; human, 72 h",1.11 ± 0.09
O=C(O)C[C@H](O)C[C@H](O)/C=C/c1c(C2CC2)nc2ccccc2c1-c1ccc(F)cc1 [Pitavistatin],Effect on cell viability (in words),[1],did not decrease the viability
same,"Normalized viability at Cmax, Differentiating, Mean ± SEM",[1],1.16 ± 0.07
same,Effect on cell viability (in words),[2],cytotoxic only to undifferentiated NPCs
same,"Normalized viability at Cmax, Undifferentiated, Mean ± SEM",[2],0.14 ± 0.11
same,IC50,[2]; [9],5.4 µM
same,IC50,[2]; [10],5.37 µM
same,IC50,[3]; [11],2 µM
same,IC50,[3]; [12],1.95 µM
same,Effect on proliferation of NPC cultures (in words),[3],inhibited proliferation
same,IC50,[4]; [13],0.98 µM
same,IC50,[4]; [14],0.977 µM
O=C1CN=C(c2ccccc2)c2cc([N+](=O)[O-])ccc2N1 [Nitrazepam],"Normalized viability at Cmax, Differentiating, Mean ± SEM",[1],1.07 ± 0.07
same,"Normalized viability at Cmax, Undifferentiated, Mean ± SEM",[2],1.16 ± 0.13
CC(=O)Nc1ccc(O)cc1 [Acetaminophen],IC50,[1]; [7],18000 µM
same,IC50,[1]; [8],20000 µM
same,"Normalized viability at Cmax, Differentiating, Mean ± SEM","[1]; human, 72 h",-0.1 ± 0.03
same,Cytotoxicity (in words),[2],no cytotoxicity at functionally relevant concentrations
same,IC50,[2]; [9],1400 µM
same,IC50,[2]; [10],1260 µM
same,"Normalized viability at Cmax, Undifferentiated, Mean ± SEM","[2]; human, 72 h",-0.16 ± 0.07
same,IC50,[3]; [11],1000 µM
same,IC50,[3]; [12],1040 µM
same,IC50,[4]; [13],18200 µM
same,IC50,[4]; [14],18200 µM
[Cl][Cd][Cl] [Cadmium Chloride],Viability Effects Differentiating log(IC50 ± SEM),[1]; [15],0.88 ± 0.27 log(μM)
same,IC50,[1]; [16],7.6 µM
same,IC50,[2]; [17],3.7 µM
same,Viability Effects Undifferentiated log(IC50 ± SEM),[2]; [18],0.57 ± 0.3 log(μM)
same,Proliferation Effects Undifferentiating log(IC50 ± SEM),[3],0.93 log(μM)
same,IC50,[3]; read-out: Proliferation Effects Undifferentiating IC50,8.6 µM
same,Proliferation Effects Differentiating log(IC50 ± SEM),[4],1.18 log(μM)
same,IC50,[4]; read-out: Proliferation Effects Differentiating IC50,15 µM
Nc1ccn([C@@H]2O[C@H](CO)[C@@H](O)[C@@H]2O)c(=O)n1 [Cytosine Arabinoside],"Normalized viability at Cmax, Differentiating, Mean ± SEM",[1],0.47 ± 0.12
same,Viability Effects Differentiating log(IC50 ± SEM),[1]; [15],0.55 ± 0.55 log(μM)
same,IC50,[1]; [16],3.5 µM
same,"Normalized viability at Cmax, Undifferentiated, Mean ± SEM",[2],0.40 ± 0.03
same,IC50,[2]; [17],0.33 µM
same,Viability Effects Undifferentiated log(IC50 ± SEM),[2]; [18],−0.48 ± 0.17 ^b log(μM)
same,Proliferation Effects Undifferentiating log(IC50 ± SEM),[3],< −1 log(μM)
same,Proliferation Effects Differentiating log(IC50 ± SEM),[4],< −1 log(μM)
O=c1[nH]cc(F)c(=O)[nH]1 [5-Fluorouracil],Effect on cell viability (in words),[1],minimally impacting
same,IC50,[1]; [7],2.3 µM
same,IC50,[1]; [8],2.24 µM
same,"Normalized viability at Cmax, Differentiating, Mean ± SEM","[1]; human, 72 h",0.81 ± 0.17
same,Effect on cell viability (in words),[2],nearly complete killing
same,IC50,[2]; [9],2.3 µM
same,IC50,[2]; [10],2.29 µM
same,"Normalized viability at Cmax, Undifferentiated, Mean ± SEM","[2]; human, 72 h",0.15 ± 0.10
same,IC50,[3]; [11],1.35 µM
same,IC50,[3]; [12],1.38 µM
same,Effect on proliferation of NPC cultures (in words),[3],inhibit the proliferation
same,Effect on EdU incorporation (in words),[3]; undifferentiated cultures,sharp decrease to no EdU incorporation
same,IC50,[4]; [13],1.82 µM
same,IC50,[4]; [14],1.82 µM
same,Effect on EdU incorporation (in words),[4]; differentiating cultures,sharp decrease to no EdU incorporation
CC1(C)C[C@@H]1C(=O)N/C(=C\CCCCSC[C@H](N)C(=O)O)C(=O)O [Cilastatin],Effect on cell viability (in words),[1]; [5],had no effect
same,Effect on cell viability (in words),[2]; [6],had no effect
same,Effect on proliferation of NPC cultures (in words),[3],did not
Fc1ccc([C@@H]2CCNC[C@H]2COc2ccc3c(c2)OCO3)cc1 [Paroxetine],"Normalized viability at Cmax, Differentiating, Mean ± SEM","[1]; human, 72 h",0.30 ± 0.38
same,"Normalized viability at Cmax, Undifferentiated, Mean ± SEM","[2]; human, 72 h",0.07 ± 0.13
CC(=O)[O-].CC(=O)[O-].[Pb+2] [Lead Acetate],Effect on cell viability (in words),[1]; [5],did not reduce cell viability
same,Effect on cell viability (in words),[2]; [6],did not reduce cell viability
"CC(COc1ccccc1Cc1ccccc1)N1CCCCC1 (stereo not shown) [Benproperone, Benproperine]","Normalized viability at Cmax, Differentiating, Mean ± SEM",[1],0.71 ± 0.30
same,"Normalized viability at Cmax, Undifferentiated, Mean ± SEM",[2],0.06 ± 0.52
CC1=C(/C=C/C(C)=C/C=C/C(C)=C/C(=O)O)C(C)(C)CCC1 [Retinoic Acid],IC50,[1]; [7],47 µM
same,IC50,[1]; [8],50.1 µM
same,"Normalized viability at Cmax, Differentiating, Mean ± SEM","[1]; human, 72 h",0.50 ± 0.13
same,IC50,[2]; [9],0.74 µM
same,IC50,[2]; [10],0.741 µM
same,"Normalized viability at Cmax, Undifferentiated, Mean ± SEM","[2]; human, 72 h",0.55 ± 0.16
same,IC50,[3]; [11],15 µM
same,IC50,[3]; [12],14.8 µM
same,IC50,[4]; [13],22 µM
same,IC50,[4]; [14],22.4 µM
same,Increase of the average number of proliferating cells,"[4]; differentiated cultures, at lower concentrations",greater than 3 fold
COc1cccc2c1C(=O)c1c(O)c3c(c(O)c1C2=O)C[C@@](O)(C(=O)CO)C[C@@H]3O[C@H]1C[C@H](N)[C@H](O)[C@H](C)O1 [Doxorubicin],IC50,[1]; [7],2.7 µM
same,IC50,[1]; [8],2.75 µM
same,"Normalized viability at Cmax, Differentiating, Mean ± SEM","[1]; human, 72 h",0.11 ± 0.16
same,IC50,[2]; [9],0.8 µM
same,IC50,[2]; [10],0.794 µM
same,"Normalized viability at Cmax, Undifferentiated, Mean ± SEM","[2]; human, 72 h",0.05 ± 0.13
same,IC50,[3]; [12],< 0.1 µM
same,IC50,[4]; [14],< 0.1 µM
O=C(O)CNCP(=O)(O)O [Glyphosate],"Normalized viability at Cmax, Differentiating, Mean ± SEM",[1],0.41 ± 0.14
same,"Normalized viability at Cmax, Undifferentiated, Mean ± SEM",[2],0.01 ± 0.03
CN(C)CCOC(c1ccccc1)c1ccccc1 [Diphenhydramine],Cytotoxicity (in words),[2],no cytotoxicity at functionally relevant concentrations
